# From patent US20170050957A1, “4-AMINO-6-(HETEROCYCLIC)PICOLINATES AND 6-AMINO-2-(HETEROCYCLIC)PYRIMIDINE-4-CARBOXYLATES AND THEIR USE AS HERBICIDES” (Dow AgroSciences LLC, priority 2013, published 2017)
# Like-named read-outs stand apart in the source and are kept apart here.
# How the values were obtained:
# [1] = tested on: Key Grass and Sedge Weeds as well as Grass Crops; assay: Post-emergent Test II herbicidal activity (Table 16); type: in vivo; conditions: post-emergence, 336 h, 14 days after application; for pest or weed control at 35 g/ha: 35 g ai/ha; for pest or weed control at 70 g/ha: 70 g ai/ha; for pest or weed control at 140 g/ha: 140 g ai/ha
# In short: (§1)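 Visual injury rating (0 = none, 100% = complete kill) made 14 d after treatment, relative to untreated plants. Compounds in an acetone/DMSO/aqueous crop-oil/surfactant spray, at top rate and serial 1/2×-1/16× rates, were applied at 187 L/ha overhead to first-second true leaf plants raised 7-21 d in greenhouse.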
# [2] = tested on: Key Broadleaf Weed and Crop Species; assay: Post-emergent Test II herbicidal activity (Table 15); type: in vivo; conditions: post-emergence, 336 h, 14 d; for pest or weed control at 35 g/ha: 35 g ai/ha; for pest or weed control at 70 g/ha: 70 g ai/ha; for pest or weed control at 140 g/ha: 140 g ai/ha
# In short: as §1
# [3] = Cyperus esculentus, yellow nutsedge (Cyperus esculentus), read-out: Visual Growth Reduction (%) 14 Days After Application CYPES
# [4] = Echinochloa crus-galli, barnyardgrass (Echinochloa crus-galli), read-out: Visual Growth Reduction (%) 14 Days After Application ECHCG
# [5] = Oryza sativa, rice (Oryza sativa), read-out: Visual Growth Reduction (%) 14 Days After Application ORYSA
# [6] = Setaria faberi, giant foxtail (Setaria faberi), read-out: Visual Growth Reduction (%) 14 Days After Application SETFA
# [7] = Triticum aestivum, wheat, spring (Triticum aestivum), read-out: Visual Growth Reduction (%) 14 Days After Application TRZAS
# [8] = Zea mays, maize, corn (Zea mays), read-out: Visual Growth Reduction (%) 14 Days After Application ZEAMX
# [9] = Abutilon theophrasti, velvetleaf (Abutilon theophrasti), read-out: Visual Growth Reduction (%) 14 Days After Application, ABUTH
# [10] = Amaranthus retroflexus, redroot pigweed (Amaranthus retroflexus), read-out: Visual Growth Reduction (%) 14 Days After Application, AMARE
# [11] = Brassica napus, oilseed rape, canola (Brassica napus), read-out: Visual Growth Reduction (%) 14 Days After Application, BRSNN
# [12] = Chenopodium album, lambsquarters (Chenopodium album), read-out: Visual Growth Reduction (%) 14 Days After Application, CHEAL
# [13] = Euphorbia heterophylla, wild poinsettia (Euphorbia heterophylla), read-out: Visual Growth Reduction (%) 14 Days After Application, EPHHL
# [14] = Helianthus annuus, sunflower (Helianthus annuus), read-out: Visual Growth Reduction (%) 14 Days After Application, HELAN
Structure (SMILES),"pest or weed control at 35 g/ha [1, 3] [%]","pest or weed control at 70 g/ha [1, 3] [%]","pest or weed control at 140 g/ha [1, 3] [%]","pest or weed control at 35 g/ha [1, 4] [%]","pest or weed control at 70 g/ha [1, 4] [%]","pest or weed control at 140 g/ha [1, 4] [%]","pest or weed control at 35 g/ha [1, 5] [%]","pest or weed control at 70 g/ha [1, 5] [%]","pest or weed control at 140 g/ha [1, 5] [%]","pest or weed control at 35 g/ha [1, 6] [%]","pest or weed control at 70 g/ha [1, 6] [%]","pest or weed control at 140 g/ha [1, 6] [%]","pest or weed control at 35 g/ha [1, 7] [%]","pest or weed control at 70 g/ha [1, 7] [%]","pest or weed control at 140 g/ha [1, 7] [%]","pest or weed control at 35 g/ha [1, 8] [%]","pest or weed control at 70 g/ha [1, 8] [%]","pest or weed control at 140 g/ha [1, 8] [%]","pest or weed control at 35 g/ha [2, 9] [%]","pest or weed control at 70 g/ha [2, 9] [%]",other results
COC(=O)c1nc(-c2cc3sccc3cc2F)nc(N)c1OC [Compound 3.22],0 to 29,0 to 29,0 to 29,0 to 29,0 to 29,0 to 29,0 to 29,0 to 29,0 to 29,0 to 29,0 to 29,0 to 29,0 to 29,0 to 29,0 to 29,0 to 29,0 to 29,0 to 29,0 to 29,0 to 29,"pest or weed control at 140 g/ha [2, 9]: 0 to 29%; pest or weed control at 35 g/ha [2, 10]: 60 to 74%; pest or weed control at 70 g/ha [2, 10]: 95 to 100%; pest or weed control at 140 g/ha [2, 10]: 95 to 100%; pest or weed control at 35 g/ha [2, 11]: 0 to 29%; pest or weed control at 70 g/ha [2, 11]: 30 to 44%; pest or weed control at 140 g/ha [2, 11]: 60 to 74%; pest or weed control at 35 g/ha [2, 12]: 60 to 74%; pest or weed control at 70 g/ha [2, 12]: 75 to 84%; pest or weed control at 140 g/ha [2, 12]: 85 to 94%; pest or weed control at 35 g/ha [2, 13]: 95 to 100%; pest or weed control at 70 g/ha [2, 13]: 95 to 100%; pest or weed control at 140 g/ha [2, 13]: 95 to 100%; pest or weed control at 35 g/ha [2, 14]: 75 to 84%; pest or weed control at 70 g/ha [2, 14]: 85 to 94%; pest or weed control at 140 g/ha [2, 14]: 85 to 94%; melting point: 168 °C"
COC(=O)c1nc(-c2cccc3sccc23)c(F)c(N)c1Cl [Compound 3.23],0 to 29,0 to 29,0 to 29,0 to 29,0 to 29,0 to 29,0 to 29,0 to 29,0 to 29,0 to 29,0 to 29,0 to 29,0 to 29,0 to 29,0 to 29,0 to 29,0 to 29,0 to 29,0 to 29,0 to 29,"pest or weed control at 140 g/ha [2, 9]: 0 to 29%; pest or weed control at 35 g/ha [2, 10]: 0 to 29%; pest or weed control at 70 g/ha [2, 10]: 0 to 29%; pest or weed control at 140 g/ha [2, 10]: 0 to 29%; pest or weed control at 35 g/ha [2, 11]: 0 to 29%; pest or weed control at 70 g/ha [2, 11]: 0 to 29%; pest or weed control at 140 g/ha [2, 11]: 0 to 29%; pest or weed control at 35 g/ha [2, 12]: 0 to 29%; pest or weed control at 70 g/ha [2, 12]: 45 to 59%; pest or weed control at 140 g/ha [2, 12]: 85 to 94%; pest or weed control at 35 g/ha [2, 13]: 0 to 29%; pest or weed control at 70 g/ha [2, 13]: 0 to 29%; pest or weed control at 140 g/ha [2, 13]: 0 to 29%; pest or weed control at 35 g/ha [2, 14]: 0 to 29%; pest or weed control at 70 g/ha [2, 14]: 0 to 29%; pest or weed control at 140 g/ha [2, 14]: 0 to 29%; melting point: 219 to 221 °C"
